# Reference: patent publication US6355799B1, “Substituted benzene compounds, process for their preparation, and herbicidal and defoliant compositions containing them” (ISK Americas Incorporated, priority 1997, dated 2002)
# Assays:
# Assay type in all cases: in vivo
# [1] = tested on: redroot pigweed (Amaranthus retroflexus, AMARE); experiment: Pre-emerge test, greenhouse herbicide activity screening; conditions: rating scale 0-100, 14 days after application
# Outline: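 Compounds in acetone were track-sprayed at 187 l/ha, 15–1000 g ai/ha, onto sandy loam pots. Pre-emerge seeds were sown one day before spraying, with surface watering afterwards. Post-emerge plants were at the 2–3 leaf stage and sprayed with 0.25% v/v non-ionic surfactant. Injury was rated 0–100 at 14 days.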
# [2] = tested on: barnyardgrass (Echinochloa crus-galli, ECHCG); experiment: as above; conditions: rating scale 0-100, 14 days after application
# Outline: (§1)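 Applied at 15–1000 g ai/ha from acetone in 187 l/ha spray volume. Post-emergence applications included 0.25% v/v non-ionic surfactant and reached plants sown 8–21 days before. Pre-emergence applications were incorporated by surface watering. Efficacy or crop damage was rated on a 0–100 scale after 14 days.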
# [3] = tested on: common ragweed (Ambrosia artemisizfolia L., AMBEL); experiment: as above; conditions: rating scale 0-100, 14 days after application
# Outline: as §1
# [4] = tested on: green foxtail (Setaria viridis, SETVI); experiment: as above; conditions: rating scale 0-100, 14 days after application
# Outline: as §1
# [5] = tested on: ivyleaf morningglory (Ipomoea hederacea, IPOHE); experiment: as above; conditions: rating scale 0-100, 14 days after application
# Outline: as §1
# [6] = tested on: johnsongrass (Sorghum halepense, SORHA); experiment: as above; conditions: rating scale 0-100, 14 days after application
# Outline: as §1
# [7] = tested on: lambsquarters (Chenopodium album, CHEAL); experiment: as above; conditions: rating scale 0-100, 14 days after application
# Outline: as §1
# [8] = tested on: large crabgrass (Digitaria sanguinalis, DIGSA); experiment: as above; conditions: rating scale 0-100, 14 days after application
# Outline: as §1
# [9] = tested on: sicklepod (Cassia obtusifolia, CASOB); experiment: as above; conditions: rating scale 0-100, 14 days after application
# Outline: as §1
# [10] = tested on: velvetleaf (Abutilon theophrasti, ABUTH); experiment: as above; conditions: rating scale 0-100, 14 days after application
# Outline: as §1
# [11] = tested on: field corn (Zea mays L., var. Dekalb 535, CORN); experiment: Pre-emerge test, crop safety; conditions: rating scale 0-100, 14 days after application
# Outline: (§2)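 Fourteen days after spraying, crop and weed injury was graded visually from 0, no effect, to 100, every plant dead. Test substances were dissolved in acetone and applied at 15–1000 g ai/ha with a flat-fan nozzle. Application was either pre-emergence, one day after sowing, or post-emergence at the 2–3 leaf stage.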
# [12] = tested on: upland rice (Oryza sp., var. Tebonnet, RICE); experiment: Pre-emerge test, crop safety; conditions: rating scale 0-100, 14 days after application
# Outline: as §2
# [13] = tested on: barnyardgrass (Echinochloa crus-galli, ECHCG); experiment: Post-emerge test, greenhouse herbicide activity screening; conditions: rating scale 0-100 (0 no damage, 100 complete death), 14 days after application
# Outline: as §1
# [14] = tested on: common ragweed (Ambrosia artemisizfolia L., AMBEL); experiment: as above; conditions: rating scale 0-100 (0 no damage, 100 complete death), 14 days after application
# Outline: as §1
# [15] = tested on: green foxtail (Setaria viridis, SETVI); experiment: as above; conditions: rating scale 0-100 (0 no damage, 100 complete death), 14 days after application
# Outline: as §1
# [16] = tested on: ivyleaf morningglory (Ipomoea hederacea, IPOHE); experiment: as above; conditions: rating scale 0-100 (0 no damage, 100 complete death), 14 days after application
# Outline: as §1
# [17] = tested on: lambsquarters (Chenopodium album, CHEAL); experiment: as above; conditions: rating scale 0-100 (0 no damage, 100 complete death), 14 days after application
# Outline: as §1
# [18] = tested on: large crabgrass (Digitaria sanguinalis, DIGSA); experiment: as above; conditions: rating scale 0-100 (0 no damage, 100 complete death), 14 days after application
# Outline: as §1
# [19] = tested on: redroot pigweed (Amaranthus retroflexus, AMARE); experiment: as above; conditions: rating scale 0-100 (0 no damage, 100 complete death), 14 days after application
# Outline: as §1
# [20] = tested on: sicklepod (Cassia obtusifolia, CASOB); experiment: as above; conditions: rating scale 0-100 (0 no damage, 100 complete death), 14 days after application
# Outline: as §1
# [21] = tested on: velvetleaf (Abutilon theophrasti, ABUTH); experiment: as above; conditions: rating scale 0-100 (0 no damage, 100 complete death), 14 days after application
# Outline: as §1
# [22] = tested on: field corn (Zea mays L., var. Dekalb 535, CORN); experiment: Post-emerge test, crop safety; conditions: rating scale 0-100 (0 no damage, 100 complete death), 14 days after application
# Outline: as §1
# [23] = tested on: upland rice (Oryza sp., var. Tebonnet, RICE); experiment: Post-emerge test, crop safety; conditions: rating scale 0-100 (0 no damage, 100 complete death), 14 days after application
# Outline: as §1
compound,measurement,setting,value
"CCCCOC(=O)C(Cl)Cc1c(OC)c(Cl)cc(F)c1-n1c(=O)cc(C(F)(F)F)n(C)c1=O (single isomer, unassigned) [14-8]","Pre-emerge herbicidal activity, phytotoxicity rating AMARE",[1]; 63 g ai/ha,100
same,"Pre-emerge herbicidal activity, phytotoxicity rating AMARE",[1]; 250 g ai/ha,99
same,"Pre-emerge herbicidal activity, phytotoxicity rating ECHCG",[2]; 63 g ai/ha,0
same,"Pre-emerge herbicidal activity, phytotoxicity rating ECHCG",[2]; 250 g ai/ha,20
same,"Pre-emerge herbicidal activity, phytotoxicity rating AMBEL",[3]; 63 g ai/ha,0
same,"Pre-emerge herbicidal activity, phytotoxicity rating AMBEL",[3]; 250 g ai/ha,40
same,"Pre-emerge herbicidal activity, phytotoxicity rating SETVI",[4]; 63 g ai/ha,0
same,"Pre-emerge herbicidal activity, phytotoxicity rating SETVI",[4]; 250 g ai/ha,0
same,"Pre-emerge herbicidal activity, phytotoxicity rating IPOHE",[5]; 63 g ai/ha,0
same,"Pre-emerge herbicidal activity, phytotoxicity rating IPOHE",[5]; 250 g ai/ha,0
same,"Pre-emerge herbicidal activity, phytotoxicity rating SORHA",[6]; 63 g ai/ha,0
same,"Pre-emerge herbicidal activity, phytotoxicity rating SORHA",[6]; 250 g ai/ha,0
same,"Pre-emerge herbicidal activity, phytotoxicity rating CHEAL",[7]; 63 g ai/ha,70
same,"Pre-emerge herbicidal activity, phytotoxicity rating CHEAL",[7]; 250 g ai/ha,95
same,"Pre-emerge herbicidal activity, phytotoxicity rating DIGSA",[8]; 63 g ai/ha,40
same,"Pre-emerge herbicidal activity, phytotoxicity rating DIGSA",[8]; 250 g ai/ha,100
same,"Pre-emerge herbicidal activity, phytotoxicity rating CASOB",[9]; 63 g ai/ha,0
same,"Pre-emerge herbicidal activity, phytotoxicity rating CASOB",[9]; 250 g ai/ha,0
same,"Pre-emerge herbicidal activity, phytotoxicity rating ABUTH",[10]; 63 g ai/ha,0
same,"Pre-emerge herbicidal activity, phytotoxicity rating ABUTH",[10]; 250 g ai/ha,40
same,"Pre-emerge phytotoxicity rating, crop damage CORN",[11]; 63 g ai/ha,0
same,"Pre-emerge phytotoxicity rating, crop damage CORN",[11]; 250 g ai/ha,0
same,"Pre-emerge phytotoxicity rating, crop damage RICE",[12]; 63 g ai/ha,0
same,"Pre-emerge phytotoxicity rating, crop damage RICE",[12]; 250 g ai/ha,0
same,"Post-emerge Herbicidal Activity, phytotoxicity rating ECHCG",[13]; Rate 63 g ai/ha,95
same,"Post-emerge Herbicidal Activity, phytotoxicity rating ECHCG",[13]; Rate 250 g ai/ha,99
same,"Post-emerge Herbicidal Activity, phytotoxicity rating AMBEL",[14]; Rate 63 g ai/ha,10
same,"Post-emerge Herbicidal Activity, phytotoxicity rating AMBEL",[14]; Rate 250 g ai/ha,50
same,"Post-emerge Herbicidal Activity, phytotoxicity rating SETVI",[15]; Rate 63 g ai/ha,10
same,"Post-emerge Herbicidal Activity, phytotoxicity rating SETVI",[15]; Rate 250 g ai/ha,40
same,"Post-emerge Herbicidal Activity, phytotoxicity rating IPOHE",[16]; Rate 63 g ai/ha,30
same,"Post-emerge Herbicidal Activity, phytotoxicity rating IPOHE",[16]; Rate 250 g ai/ha,95
same,"Post-emerge Herbicidal Activity, phytotoxicity rating CHEAL",[17]; Rate 63 g ai/ha,70
same,"Post-emerge Herbicidal Activity, phytotoxicity rating CHEAL",[17]; Rate 250 g ai/ha,99
same,"Post-emerge Herbicidal Activity, phytotoxicity rating DIGSA",[18]; Rate 63 g ai/ha,40
same,"Post-emerge Herbicidal Activity, phytotoxicity rating DIGSA",[18]; Rate 250 g ai/ha,85
same,"Post-emerge Herbicidal Activity, phytotoxicity rating AMARE",[19]; Rate 63 g ai/ha,90
same,"Post-emerge Herbicidal Activity, phytotoxicity rating AMARE",[19]; Rate 250 g ai/ha,100
same,"Post-emerge Herbicidal Activity, phytotoxicity rating CASOB",[20]; Rate 63 g ai/ha,30
same,"Post-emerge Herbicidal Activity, phytotoxicity rating CASOB",[20]; Rate 250 g ai/ha,80
same,"Post-emerge Herbicidal Activity, phytotoxicity rating ABUTH",[21]; Rate 63 g ai/ha,60
same,"Post-emerge Herbicidal Activity, phytotoxicity rating ABUTH",[21]; Rate 250 g ai/ha,100
same,Post-emerge phytotoxicity rating CORN (crop damage),[22]; Rate 63 g ai/ha,40
same,Post-emerge phytotoxicity rating CORN (crop damage),[22]; Rate 250 g ai/ha,80
same,Post-emerge phytotoxicity rating RICE (crop damage),[23]; Rate 63 g ai/ha,5
same,Post-emerge phytotoxicity rating RICE (crop damage),[23]; Rate 250 g ai/ha,30
"CCCCOC(=O)C(Cl)Cc1c(OC)c(Cl)cc(F)c1-n1c(=O)cc(C(F)(F)F)n(C)c1=O (single isomer, unassigned) [14-9]","Pre-emerge herbicidal activity, phytotoxicity rating AMARE",[1]; 63 g ai/ha,80
same,"Pre-emerge herbicidal activity, phytotoxicity rating AMARE",[1]; 250 g ai/ha,100
same,"Pre-emerge herbicidal activity, phytotoxicity rating ECHCG",[2]; 63 g ai/ha,0
same,"Pre-emerge herbicidal activity, phytotoxicity rating ECHCG",[2]; 250 g ai/ha,70
same,"Pre-emerge herbicidal activity, phytotoxicity rating AMBEL",[3]; 63 g ai/ha,0
same,"Pre-emerge herbicidal activity, phytotoxicity rating AMBEL",[3]; 250 g ai/ha,0
same,"Pre-emerge herbicidal activity, phytotoxicity rating SETVI",[4]; 63 g ai/ha,0
same,"Pre-emerge herbicidal activity, phytotoxicity rating SETVI",[4]; 250 g ai/ha,20
same,"Pre-emerge herbicidal activity, phytotoxicity rating IPOHE",[5]; 63 g ai/ha,0
same,"Pre-emerge herbicidal activity, phytotoxicity rating IPOHE",[5]; 250 g ai/ha,0
same,"Pre-emerge herbicidal activity, phytotoxicity rating SORHA",[6]; 63 g ai/ha,0
same,"Pre-emerge herbicidal activity, phytotoxicity rating SORHA",[6]; 250 g ai/ha,30
same,"Pre-emerge herbicidal activity, phytotoxicity rating CHEAL",[7]; 63 g ai/ha,60
same,"Pre-emerge herbicidal activity, phytotoxicity rating CHEAL",[7]; 250 g ai/ha,90
same,"Pre-emerge herbicidal activity, phytotoxicity rating DIGSA",[8]; 63 g ai/ha,90
same,"Pre-emerge herbicidal activity, phytotoxicity rating DIGSA",[8]; 250 g ai/ha,100
same,"Pre-emerge herbicidal activity, phytotoxicity rating CASOB",[9]; 63 g ai/ha,0
same,"Pre-emerge herbicidal activity, phytotoxicity rating CASOB",[9]; 250 g ai/ha,0
same,"Pre-emerge herbicidal activity, phytotoxicity rating ABUTH",[10]; 63 g ai/ha,0
same,"Pre-emerge herbicidal activity, phytotoxicity rating ABUTH",[10]; 250 g ai/ha,90
same,"Pre-emerge phytotoxicity rating, crop damage CORN",[11]; 63 g ai/ha,0
same,"Pre-emerge phytotoxicity rating, crop damage CORN",[11]; 250 g ai/ha,75
same,"Pre-emerge phytotoxicity rating, crop damage RICE",[12]; 63 g ai/ha,0
same,"Pre-emerge phytotoxicity rating, crop damage RICE",[12]; 250 g ai/ha,5
same,"Post-emerge Herbicidal Activity, phytotoxicity rating ECHCG",[13]; Rate 63 g ai/ha,98
same,"Post-emerge Herbicidal Activity, phytotoxicity rating ECHCG",[13]; Rate 250 g ai/ha,100
same,"Post-emerge Herbicidal Activity, phytotoxicity rating AMBEL",[14]; Rate 63 g ai/ha,10
same,"Post-emerge Herbicidal Activity, phytotoxicity rating AMBEL",[14]; Rate 250 g ai/ha,70
same,"Post-emerge Herbicidal Activity, phytotoxicity rating SETVI",[15]; Rate 63 g ai/ha,30
same,"Post-emerge Herbicidal Activity, phytotoxicity rating SETVI",[15]; Rate 250 g ai/ha,60
same,"Post-emerge Herbicidal Activity, phytotoxicity rating IPOHE",[16]; Rate 63 g ai/ha,0
same,"Post-emerge Herbicidal Activity, phytotoxicity rating IPOHE",[16]; Rate 250 g ai/ha,80
same,"Post-emerge Herbicidal Activity, phytotoxicity rating CHEAL",[17]; Rate 63 g ai/ha,60
same,"Post-emerge Herbicidal Activity, phytotoxicity rating CHEAL",[17]; Rate 250 g ai/ha,99
same,"Post-emerge Herbicidal Activity, phytotoxicity rating DIGSA",[18]; Rate 63 g ai/ha,75
same,"Post-emerge Herbicidal Activity, phytotoxicity rating DIGSA",[18]; Rate 250 g ai/ha,75
same,"Post-emerge Herbicidal Activity, phytotoxicity rating AMARE",[19]; Rate 63 g ai/ha,90
same,"Post-emerge Herbicidal Activity, phytotoxicity rating AMARE",[19]; Rate 250 g ai/ha,99
same,"Post-emerge Herbicidal Activity, phytotoxicity rating CASOB",[20]; Rate 63 g ai/ha,0
same,"Post-emerge Herbicidal Activity, phytotoxicity rating CASOB",[20]; Rate 250 g ai/ha,0
same,"Post-emerge Herbicidal Activity, phytotoxicity rating ABUTH",[21]; Rate 63 g ai/ha,70
same,"Post-emerge Herbicidal Activity, phytotoxicity rating ABUTH",[21]; Rate 250 g ai/ha,100
same,Post-emerge phytotoxicity rating CORN (crop damage),[22]; Rate 63 g ai/ha,70
same,Post-emerge phytotoxicity rating CORN (crop damage),[22]; Rate 250 g ai/ha,99
same,Post-emerge phytotoxicity rating RICE (crop damage),[23]; Rate 63 g ai/ha,5
same,Post-emerge phytotoxicity rating RICE (crop damage),[23]; Rate 250 g ai/ha,20
